Experimental findings from patent EP1581477B1, “CYCLOALKENE DICARBOXYLIC ACID COMPOUNDS AS ANTI-INFLAMMATORY, IMMUNOMODULATORY AND ANTI-PROLIFERATORY AGENTS” (4SC AG, priority 2002, dated 2004) are described below.

pIC50: −log10 of the molar value.

For orientation: pIC50 means −log10 of the IC50, conventionally taken in molar units.

In the experiment the target is T1, human DHODH (Homo sapiens, UniProt Q02127).
T1 construct: Prof; M. Löffler, Marburg, Germany (gift)
T1 sequence (Q02127 whole entry): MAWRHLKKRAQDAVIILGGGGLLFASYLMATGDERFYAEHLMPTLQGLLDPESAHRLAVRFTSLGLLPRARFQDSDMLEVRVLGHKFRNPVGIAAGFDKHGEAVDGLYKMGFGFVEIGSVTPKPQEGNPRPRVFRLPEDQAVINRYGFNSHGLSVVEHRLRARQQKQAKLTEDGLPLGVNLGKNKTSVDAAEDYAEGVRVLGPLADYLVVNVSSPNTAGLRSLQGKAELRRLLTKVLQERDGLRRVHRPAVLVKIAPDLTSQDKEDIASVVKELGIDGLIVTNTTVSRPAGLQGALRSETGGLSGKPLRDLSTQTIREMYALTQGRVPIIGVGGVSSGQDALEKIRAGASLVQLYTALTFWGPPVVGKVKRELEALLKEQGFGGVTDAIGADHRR
Description: Inhibition assay of DHODH activity (spectrophotometric, 2,6-dichloroindophenol reduction). Type of experiment: biochemical. The following applies: recombinant human DHODH; 50 mM TrisHCl, pH 8,0, 30°C; absorption at 600 nm. The method, then:
3. Inhibition Assay of DHODH activity
The standard assay mixture contained 50 µM decyclo ubichinone, 100 µM dihydroorotate, 60 µM 2,6-dichloroindophenol, as well as 20 mU DHODH The volume activity of the recombinant enzyme used was 30 U/ml. Measurements were conducted in 50 mM TrisHCl (150 mM KCI, 0,1% Triton X-100, pH 8,0) at 30°C in a final volume of 1 ml. The components were mixed, and the reaction was started by adding dihydroorotate. The course of reaction was followed by spectrophotometrically measuring the decrease in absorption at 600 nm for 2 min.
Inhibitory studies were conducted in a standard assay with additional variable amounts of inhibitor.
These investigations were carried out with recombinant human as well as with recombinant murine DHODH provided by Prof. M. Löffler, Marburg, Germany [M. Löffler, Chem. Biol. Interact. 124, (2000), 61-76].
Take `COc1ccccc1-c1ccc(NC(=O)C2=C(C(=O)O)C(O)CC2)cc1Cl` (stereo not drawn) [Example 14, 2-(2-Chloro-2'-methoxy-biphenyl-4-ylcarbamoyl)-5-hydroxy-cyclopent-1-enecarboxylic acid]: the pIC50 is > 6.00.
The result for `COc1cccc(-c2ccc(NC(=O)C3=C(C(=O)O)CCC3O)c(F)c2)c1` (stereo not drawn) [Example 17, 2-(3-Fluoro-3'-methoxy-biphenyl-4-ylcarbamoyl)-3-hydroxy-cyclopent-1-enecarboxylic acid] reads > 6.00.
Consider `O=C(O)C1=C(C(=O)Nc2c(F)cc(-c3ccccc3Cl)cc2F)C(O)CC1` (stereo not drawn) [Example 15, 2-(2'-Chloro-3,5-difluoro-biphenyl-4-ylcarbamoyl)-3-hydroxy-cyclopent-1-enecarboxylic acid], for which the negative-log IC50 (pIC50) is > 6.00.
The result for `O=C(O)C1=C(C(=O)Nc2c(F)cc(-c3ccccc3F)cc2F)C(O)CC1` (stereo not drawn) [Example 11, 3-Hydroxy-2-(3,5,2'-trifluoro-biphenyl-4-ylcarbamoyl)-cyclopent-1-enecarboxylic acid] reads > 6.00; that for `COc1cccc(-c2ccc(NC(=O)C3=C(C(=O)O)C(C(=O)O)CC3)c(F)c2)c1` (stereo not drawn) [Example 1, 3-(3-Fluoro-3'-methoxy-biphenyl-4-ylcarbamoyl)-cyclopent-2-ene-1,2-dicarboxylic acid], < 5.30.
The result for `COC(=O)C1=C(C(=O)Nc2ccc(-c3cccc(OC)c3)cc2F)CCC1` [Example 3, 2-(3-Fluoro-3'-methoxy-biphenyl-4-ylcarbamoyl)-cyclopent-1-enecarboxylic acid methyl ester] reads < 5.30; that for `CCOc1cccc(-c2cc(F)c(NC(=O)C3=C(C(=O)O)CCC3O)c(F)c2)c1` (stereo not drawn) [Example 7, 2-(3'-Ethoxy-3,5-difluoro-biphenyl-4-ylcarbamoyl)-3-hydroxy-cyclopent-1-enecarboxylic acid], > 6.00.
The result for “2-(1',3'di-methoxy-3,5-difluoro-biphenyl-4-ylcarbamoyl)-5-hydroxy-cyclopent-1-enecarboxylic acid [Example 10]” reads > 5.30; that for `O=C(O)C1=C(C(=O)Nc2c(F)cc(-c3ccccc3Cl)cc2F)CCC1O` (stereo not drawn) [Example 16, 2-(2'-Chloro-3,5-difluoro-biphenyl-4-ylcarbamoyl)-5-hydroxy-cyclopent-1-enecarboxylic acid], > 6.00; that for “2-(1',3'di-methoxy-3,5-difluoro-biphenyl-4-ylcarbamoyl)-3-hydroxy-cyclopent-1-enecarboxylic acid [Example 9]”, > 5.30.
On to `COc1cccc(-c2ccc(NC(=O)C3=C(C(=O)O)CCC3C(=O)O)c(F)c2)c1` (stereo not drawn) [Example 2, 2-(3-Fluoro-3'-methoxy-biphenyl-4-ylcarbamoyl)-cyclopent-1-ene-1,3-dicarboxylic acid], for which the pIC50 was < 5.30.
The result for `CCOc1cccc(-c2cc(F)c(NC(=O)C3=C(C(=O)O)C(O)CC3)c(F)c2)c1` (stereo not drawn) [Example 8, 2-(3'-Ethoxy-3,5-difluoro-biphenyl-4-ylcarbamoyl)-5-hydroxy-cyclopent-1-enecarboxylic acid] reads > 6.00; that for `O=C(O)C1=C(C(=O)Nc2c(F)c(F)c(-c3cccc(OC(F)(F)F)c3)c(F)c2F)C(O)CC1` (stereo not drawn) [Example 5, 3-Hydroxy-2-(2,3,5,6-tetrafluoro-3'-trifluoromethoxy-biphenyl-4-ylcarbamoyl)-cyclopent-1-enecarboxylic acid], > 6.00.
Take `COc1ccccc1-c1ccc(NC(=O)C2=C(C(=O)O)CCC2O)cc1Cl` (stereo not drawn) [Example 13, 2-(2-Chloro-2'-methoxy-biphenyl-4-ylcarbamoyl)-3-hydroxy-cyclopent-1-enecarboxylic acid]: the pIC50 is > 6.00.
The result for `O=C(O)C1=C(C(=O)Nc2c(F)c(F)c(-c3cccc(OC(F)(F)F)c3)c(F)c2F)CCC1O` (stereo not drawn) [Example 6, 5-Hydroxy-2-(2,3,5,6-tetrafluoro-3'-trifluoromethoxy-biphenyl-4-ylcarbamoyl)-cyclopent-1-enecarboxylic acid] reads > 6.00.
